# Source: patent US20240409585A1, “MACROCYCLIC IMMUNOMODULATORS” (priority 2021, published 2024)
# Bridge positions count the residues as written; N and C are the ends. Square brackets hold non-standard residues; d marks the D form. Peptide text beside a SMILES is read from it. * marks the point of attachment. ξ: configuration not given here. Tyr(3-NO2) = N[C@@H](Cc1ccc(O)c([N+](=O)[O-])c1)C(=O)O; Ala(indol-4-yl) = N[C@@H](Cc1cccc2[nH]ccc12)C(=O)O; Trp(7-Cl) = N[C@@H](Cc1c[nH]c2c(Cl)cccc12)C(=O)O; Phe(4-COOH) = N[C@@H](Cc1ccc(C(=O)O)cc1)C(=O)O; Bip = N[C@@H](Cc1ccc(-c2ccccc2)cc1)C(=O)O; Phe(3-CN) = N#Cc1cccc(C[C@H](N)C(=O)O)c1; Phe(3-OMe) = COc1cccc(C[C@H](N)C(=O)O)c1; dPhe(4-Cl) = N[C@H](Cc1ccc(Cl)cc1)C(=O)O; Phe(3-Me) = Cc1cccc(C[C@H](N)C(=O)O)c1; Val(3-OH) = CC(C)(O)[C@H](N)C(=O)O; 2Pal = N[C@@H](Cc1ccccn1)C(=O)O; 4Pal = N[C@@H](Cc1ccncc1)C(=O)O; 3Thi = N[C@@H](Cc1ccsc1)C(=O)O; Cha = N[C@@H](CC1CCCCC1)C(=O)O; Cit = NC(=O)NCCC[C@H](N)C(=O)O; Ile(3ξ) = CCC(C)[C@H](N)C(=O)O; Thr(3ξ) = CC(O)[C@H](N)C(=O)O; Carboxymethyl = O=C(O)C*; NMeA = CN[C@@H](C)C(=O)O; Dab = NCC[C@H](N)C(=O)O; Dap = NC[C@H](N)C(=O)O
# Biological target: T1, PE-labeled human PD-L1-Ig binding to Jurkat cell line over-expressing human PD-1 (Jurkat-PD-1) (Homo sapiens, UniProt Q15116)
# T1 construct: expressed in transfected cells; host or cells: Jurkat
# T1 sequence (Q15116 25-288): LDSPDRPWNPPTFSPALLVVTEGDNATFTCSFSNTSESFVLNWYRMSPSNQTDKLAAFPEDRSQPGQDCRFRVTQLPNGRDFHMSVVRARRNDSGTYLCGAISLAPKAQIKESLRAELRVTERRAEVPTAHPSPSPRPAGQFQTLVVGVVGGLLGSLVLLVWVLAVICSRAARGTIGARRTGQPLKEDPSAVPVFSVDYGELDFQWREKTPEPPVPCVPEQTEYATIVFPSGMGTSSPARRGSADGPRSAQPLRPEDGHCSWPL
# Experiment: Jurkat-PD-1 Cell Binding High-Content Screening Assay (CBA): Method 1
# Settings: Jurkat-hPD-1 cells, PE-labeled PD-L1-Ig 20 nM final; read-out: Jurkat HPDL1 PD1 IC50 (uM) (Method 1)
row,IC50 [µM],SMILES
1,0.03,CC(C)C[C@@H]1NC(=O)[C@H](CCN)NC(=O)[C@@H](CC(C)C)NC(=O)[C@H](C)N(C)C(=O)[C@H](CCCNC(=N)N)NC(=O)[C@H](Cc2ccc(-c3ccccc3)cc2)NC(=O)[C@H](C(C)C)NC(=O)[C@H](Cc2c[nH]c3ccccc23)NC(=O)[C@H](CC(=O)O)NC(=O)[C@H](Cc2ccc(O)c([N+](=O)[O-])c2)NC(=O)[C@H](CC(N)=O)NC(=O)CSC[C@@H](C(=O)N[C@@H](C)C(N)=O)NC(=O)[C@H]([C@@H](C)O)NC(=O)[C@H](C(C)C)NC1=O [Compound 1160] ({CH2CO}-N[Tyr(3-NO2)]DWV[Bip]R[NMeA][dL][Dab]LVTCA-NH2; thioether N-14)
2,0.01,Cc1cccc(C[C@@H]2NC(=O)[C@H](CC(=O)O)NC(=O)[C@H](Cc3ccc(O)cc3)NC(=O)[C@H](CC(N)=O)NC(=O)CSC[C@@H](C(=O)N[C@@H](C)C(N)=O)NC(=O)[C@H]([C@@H](C)O)NC(=O)[C@H](C(C)C)NC(=O)[C@H](CC(C)C)NC(=O)[C@H](CCCNC(=N)N)NC(=O)[C@@H](CC(C)C)NC(=O)[C@H](C)N(C)C(=O)[C@H](C(C)C)NC(=O)[C@H](Cc3ccc(-c4ccccc4)cc3)NC(=O)[C@H](C(C)C)NC2=O)c1 [Compound 1273] ({CH2CO}-NYD[Phe(3-Me)]V[Bip]V[NMeA][dL]RLVTCA-NH2; thioether N-14)
3,0.1,COc1cccc(C[C@@H]2NC(=O)[C@H](CC(N)=O)NC(=O)CSC[C@@H](C(=O)N[C@@H](C)C(N)=O)NC(=O)[C@H]([C@@H](C)O)NC(=O)[C@H](C(C)C)NC(=O)[C@H](CC(C)C)NC(=O)[C@H](CCN)NC(=O)[C@@H](CC(C)C)NC(=O)[C@H](C)N(C)C(=O)[C@H](CCCNC(=N)N)NC(=O)[C@H](Cc3ccc(-c4ccccc4)cc3)NC(=O)[C@H](C(C)C)NC(=O)[C@H](Cc3c[nH]c4ccccc34)NC(=O)[C@H](CC(=O)O)NC2=O)c1 [Compound 1307] ({CH2CO}-N[Phe(3-OMe)]DWV[Bip]R[NMeA][dL][Dab]LVTCA-NH2; thioether N-14)
4,0.16,CC(C)C[C@@H]1NC(=O)[C@H](Cc2c[nH]c3ccccc23)NC(=O)[C@H](CC(=O)O)NC(=O)[C@H](Cc2ccc(C(=O)O)cc2)NC(=O)[C@H](Cc2ccc(OCC(=O)O)cc2)NC(=O)CSC[C@@H](C(N)=O)NC(=O)[C@H](CCCCN)NC(=O)[C@H](C(C)C)NC(=O)[C@H](CC(C)C)NC(=O)[C@H](CC(N)=O)NC(=O)[C@@H](CC(C)C)NC(=O)[C@H](C)N(C)C(=O)[C@H](C(C)C)NC(=O)[C@H](Cc2ccc(-c3ccccc3)cc2)NC1=O [Compound 2258] ({CH2CO}-Y(Carboxymethyl)[Phe(4-COOH)]DWL[Bip]V[NMeA][dL]NLVKC-NH2; thioether N-14)
5,0.01,Cc1cccc(C[C@@H]2NC(=O)[C@H](CC(=O)O)NC(=O)[C@H](Cc3ccc(C(=O)O)cc3)NC(=O)[C@H](Cc3ccsc3)NC(=O)CSC[C@@H](C(=O)N[C@@H](CCN)C(N)=O)NC(=O)[C@H](CO)NC(=O)[C@H](C(C)(C)O)NC(=O)[C@H](CC3CCCCC3)NC(=O)[C@H](CCN)NC(=O)[C@@H](CC(C)C)NC(=O)[C@H](C)N(C)C(=O)[C@H](Cc3ccc(OCC(=O)O)cc3)NC(=O)[C@H](Cc3ccc(-c4ccccc4)cc3)NC(=O)[C@H](Cc3ccc(OCC(=O)O)cc3)NC2=O)c1 [Compound 2133] ({CH2CO}-[3Thi][Phe(4-COOH)]D[Phe(3-Me)]Y(Carboxymethyl)[Bip]Y(Carboxymethyl)[NMeA][dL][Dab][Cha][Val(3-OH)]SC[Dab]-NH2; thioether N-14)
6,0.03,CCC(C)[C@@H]1NC(=O)[C@H](Cc2ccc(-c3ccccc3)cc2)NC(=O)[C@H](C(C)C)NC(=O)[C@H](Cc2c[nH]c3ccccc23)NC(=O)[C@H](CC(=O)O)NC(=O)[C@H](Cc2ccc(O)cc2)NC(=O)[C@H](Cc2cccc3[nH]ccc23)NC(=O)CSC[C@@H](C(=O)N[C@@H](C)C(N)=O)NC(=O)[C@H](C(C)O)NC(=O)[C@H](C(C)C)NC(=O)[C@H](CC2CCCCC2)NC(=O)[C@H](CCN)NC(=O)[C@@H](CC(C)C)NC(=O)[C@H](C)N(C)C1=O (stereo partly drawn) [Compound 2053] ({CH2CO}-[Ala(indol-4-yl)]YDWV[Bip][Ile(3ξ)][NMeA][dL][Dab][Cha]V[Thr(3ξ)]CA-NH2; thioether N-14)
7,0.13,CC(C)C[C@@H]1NC(=O)[C@H](CCN)NC(=O)[C@@H](CC(C)C)NC(=O)[C@H](C)N(C)C(=O)[C@H](CCCNC(N)=O)NC(=O)[C@H](Cc2ccc(-c3ccccc3)cc2)NC(=O)[C@H](C(C)C)NC(=O)[C@H](Cc2c[nH]c3ccccc23)NC(=O)[C@H](CC(=O)O)NC(=O)[C@H](Cc2cccc(C#N)c2)NC(=O)[C@H](CN)NC(=O)CSC[C@@H](C(=O)N[C@@H](C)C(N)=O)NC(=O)[C@H]([C@@H](C)O)NC(=O)[C@H](C(C)C)NC1=O [Compound 1403] ({CH2CO}-[Dap][Phe(3-CN)]DWV[Bip][Cit][NMeA][dL][Dab]LVTCA-NH2; thioether N-14)
8,0.09,Cc1cccc(C[C@@H]2NC(=O)[C@H](CC(=O)O)NC(=O)[C@H](Cc3ccc(OCC(=O)O)cc3)NC(=O)[C@H](Cc3cnc[nH]3)NC(=O)CSC[C@@H](C(=O)N[C@H](C)C(N)=O)NC(=O)[C@H](CO)NC(=O)[C@H](C(C)(C)O)NC(=O)[C@H](CC3CCCCC3)NC(=O)[C@H](CCN)NC(=O)[C@@H](CC(C)C)NC(=O)[C@H](C)N(C)C(=O)[C@H](Cc3ccc(OCC(=O)O)cc3)NC(=O)[C@H](Cc3ccc(-c4ccccc4)cc3)NC(=O)[C@H](Cc3ccc(C(=O)O)cc3)NC2=O)c1 [Compound 2182] ({CH2CO}-HY(Carboxymethyl)D[Phe(3-Me)][Phe(4-COOH)][Bip]Y(Carboxymethyl)[NMeA][dL][Dab][Cha][Val(3-OH)]SC[dA]-NH2; thioether N-14)
9,0.01,Cc1cccc(C[C@@H]2NC(=O)[C@H](CC(=O)O)NC(=O)[C@H](Cc3ccc(OCC(=O)O)cc3)NC(=O)[C@H](Cc3ccncc3)NC(=O)CSC[C@@H](C(N)=O)NC(=O)[C@H](CC(N)=O)NC(=O)[C@H](C(C)C)NC(=O)[C@H](CC3CCCCC3)NC(=O)[C@H](CCN)NC(=O)[C@@H](CC(C)C)NC(=O)[C@H](C)N(C)C(=O)[C@H](Cc3ccc(OCC(=O)O)cc3)NC(=O)[C@H](Cc3ccc(-c4ccccc4)cc3)NC(=O)[C@H](Cc3ccc(OCC(=O)O)cc3)NC2=O)c1 [Compound 1663] ({CH2CO}-[4Pal]Y(Carboxymethyl)D[Phe(3-Me)]Y(Carboxymethyl)[Bip]Y(Carboxymethyl)[NMeA][dL][Dab][Cha]VNC-NH2; thioether N-14)
10,0.05,Cc1cccc(C[C@@H]2NC(=O)[C@H](Cc3ccccc3)NC(=O)CSC[C@@H](C(=O)NCC(N)=O)NC(=O)[C@H](CO)NC(=O)[C@H](C(C)C)NC(=O)[C@H](CC(C)C)NC(=O)[C@H](CC(N)=O)NC(=O)[C@@H](CC(C)C)NC(=O)[C@H](C)N(C)C(=O)[C@H](C(C)C)NC(=O)[C@H](Cc3ccc(-c4ccccc4)cc3)NC(=O)[C@H](CC(C)C)NC(=O)[C@H](Cc3c[nH]c4ccccc34)NC(=O)[C@H](CC(=O)O)NC2=O)c1 [Compound 1518] ({CH2CO}-F[Phe(3-Me)]DWL[Bip]V[NMeA][dL]NLVSCG-NH2; thioether N-14)
11,0.03,CC(C)C[C@@H]1NC(=O)[C@H](CCN)NC(=O)[C@@H](CC(C)C)NC(=O)[C@H](C)N(C)C(=O)[C@H](CCC(=O)O)NC(=O)[C@H](Cc2ccc(-c3ccccc3)cc2)NC(=O)[C@H](C(C)C)NC(=O)[C@H](Cc2c[nH]c3ccccc23)NC(=O)[C@H](CC(=O)O)NC(=O)[C@H](Cc2ccc(O)cc2)NC(=O)[C@H](CC(N)=O)NC(=O)CSC[C@@H](C(=O)N[C@@H](C)C(N)=O)NC(=O)[C@H]([C@@H](C)O)NC(=O)[C@H](C(C)C)NC1=O [Compound 1255] ({CH2CO}-NYDWV[Bip]E[NMeA][dL][Dab]LVTCA-NH2; thioether N-14)
12,0.13,CC(C)C[C@@H]1NC(=O)[C@H](CCCNC(=N)N)NC(=O)[C@@H](CC(C)C)NC(=O)[C@H](C)N(C)C(=O)[C@H](CCCNC(=N)N)NC(=O)[C@H](Cc2ccc(-c3ccccc3)cc2)NC(=O)[C@H](C(C)C)NC(=O)[C@H](Cc2c[nH]c3c(Cl)cccc23)NC(=O)[C@H](CC(=O)O)NC(=O)[C@H](Cc2ccc(O)cc2)NC(=O)[C@H](Cc2ccccc2)NC(=O)CSC[C@@H](C(=O)N[C@@H](C)C(N)=O)NC(=O)[C@H]([C@@H](C)O)NC(=O)[C@H](C(C)C)NC1=O [Compound 1098] ({CH2CO}-FYD[Trp(7-Cl)]V[Bip]R[NMeA][dL]RLVTCA-NH2; thioether N-14)
13,0.04,CC(C)C[C@@H]1NC(=O)[C@H](CCN)NC(=O)[C@@H](CC(C)C)NC(=O)[C@H](C)N(C)C(=O)[C@H](CCCNC(N)=O)NC(=O)[C@H](Cc2ccc(-c3ccccc3)cc2)NC(=O)[C@H](C(C)C)NC(=O)[C@H](Cc2c[nH]c3ccccc23)NC(=O)[C@H](CC(=O)O)NC(=O)[C@H](Cc2cccc(C#N)c2)NC(=O)[C@H](CC(N)=O)NC(=O)CSC[C@@H](C(=O)N[C@@H](C)C(N)=O)NC(=O)[C@H]([C@@H](C)O)NC(=O)[C@H](C(C)C)NC1=O [Compound 1314] ({CH2CO}-N[Phe(3-CN)]DWV[Bip][Cit][NMeA][dL][Dab]LVTCA-NH2; thioether N-14)
14,0.08,CC(C)C[C@@H]1NC(=O)[C@H](CCN)NC(=O)[C@@H](CC(C)C)NC(=O)[C@H](C)N(C)C(=O)[C@H](CCCNC(N)=O)NC(=O)[C@H](Cc2ccc(-c3ccccc3)cc2)NC(=O)[C@H](C(C)C)NC(=O)[C@H](Cc2c[nH]c3ccccc23)NC(=O)[C@H](CC(=O)O)NC(=O)[C@H](Cc2ccc(O)cc2)NC(=O)[C@H](Cc2ccccn2)NC(=O)CSC[C@@H](C(=O)N[C@@H](C)C(N)=O)NC(=O)[C@H]([C@@H](C)O)NC(=O)[C@H](C(C)C)NC1=O [Compound 1327] ({CH2CO}-[2Pal]YDWV[Bip][Cit][NMeA][dL][Dab]LVTCA-NH2; thioether N-14)
15,0.63,CC(C)C[C@@H]1NC(=O)[C@H](CCCNC(=N)N)NC(=O)[C@@H](Cc2ccc(Cl)cc2)NC(=O)[C@H](C)N(C)C(=O)[C@H](CCCNC(=N)N)NC(=O)[C@H](Cc2ccc(-c3ccccc3)cc2)NC(=O)[C@H](C(C)C)NC(=O)[C@H](Cc2c[nH]c3ccccc23)NC(=O)[C@H](CC(=O)O)NC(=O)[C@H](Cc2ccc(O)cc2)NC(=O)[C@H](Cc2ccccc2)NC(=O)CSC[C@@H](C(=O)N[C@@H](C)C(N)=O)NC(=O)[C@H]([C@@H](C)O)NC(=O)[C@H](C(C)C)NC1=O [Compound 1070] ({CH2CO}-FYDWV[Bip]R[NMeA][dPhe(4-Cl)]RLVTCA-NH2; thioether N-14)
